Read-outs that look alike come from different tables or passages of the source.
Tests used:
[1] = target: T1, human GPR43 (Homo sapiens, UniProt O15552); assay: Accumulation of GTPγ[35S] binding on membranes from CHO-K1 cells expressing human GPR43; type: biochemical; design: expressed in transfected cells; settings: for activity on GTPγ[35S] binding / order of agonist potency: single concentration of each compound, FIG. 8
T1 sequence (O15552 1-330): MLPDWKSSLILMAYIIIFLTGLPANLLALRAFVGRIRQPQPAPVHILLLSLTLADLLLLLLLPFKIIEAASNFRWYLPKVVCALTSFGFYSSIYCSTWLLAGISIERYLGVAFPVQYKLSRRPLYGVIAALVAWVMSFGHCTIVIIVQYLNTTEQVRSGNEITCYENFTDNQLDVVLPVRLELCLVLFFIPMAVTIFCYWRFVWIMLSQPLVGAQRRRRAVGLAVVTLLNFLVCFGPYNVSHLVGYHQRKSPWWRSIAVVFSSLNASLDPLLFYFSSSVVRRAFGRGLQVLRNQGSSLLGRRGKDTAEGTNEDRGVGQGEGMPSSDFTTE
Method: For GPCRs such as GPR43, a measure of receptor activity is the binding of GTP by cell membranes containing receptors. In the method described by Traynor and Nahorski, 1995, Mol. Pharmacol. 47: 848-854, incorporated herein by reference, one essentially measures G-protein coupling to membranes by detecting the binding of labelled GTP. For GTP binding assays, membranes isolated from cells expressing the receptor are incubated in a buffer containing 20 mM HEPES, pH 7.4, 100 mM NaCl, and 10 mM MgCl2, 80 pM ^35S-GTPγS and 3 μM GDP. The assay mixture is incubated for 60 minutes at 30° C., after which unbound labelled GTP is removed by filtration onto GF/B filters. Bound, labelled GTP is measured by liquid scintillation counting. In order to assay for modulation of propionate-induced GPR43 activity, membranes prepared from cells expressing a GPR43 polypeptide are mixed with propionate, and the GTP binding assay is performed in the presence and absence of a candidate modulator of GPR43 activity. […] In this case, propionate-stimulated GTP binding is used as a standard. […] GTPase activity is measured by incubating the membranes containing a GPR43 polypeptide with γ^32P-GTP. Active GTPase will release the label as inorganic phosphate, which is detected by separation of free inorganic phosphate in a 5% suspension of activated charcoal in 20 mM H3PO4, followed by scintillation counting. Controls include assays using membranes isolated from cells not expressing GPR43 (mock-transfected), in order to exclude possible non-specific effects of the candidate compound.
The activity of acetate was examined in a membrane-based functional test.
The activity of other SCFA and related compounds (alcohols, aldehydes, cetone, di-acids . . . ) was evaluated using a single concentration of each in the membrane-cell based assay.

[2] = target: T1, human GPR43; assay: Structure-activity relationships of SCFAs and related compounds on human GPR43 (FIG. 12); design: expressed in transfected cells; settings: compared with corresponding non-substituted active compounds
[3] = target: T1, human GPR43; assay: Inhibition of forskolin-stimulated adenylate cyclase activity in CHO-K1 cells stably expressing human GPR43; type: cell-based; design: expressed in transfected cells
Method: (§1) Additional related compounds were tested using the same cells.
SCFA, ranging from 1 carbon to 4 carbon, were tested on CHO-K1 cells stably expressing the human GPR43 for their ability to inhibit the activity of adenylate cyclase stimulated with forskolin.

[4] = tested on: non related human G-protein coupled receptors; assay: GTPγ[35S] binding on ten membrane preparations of CHO-K1 cells expressing non related human GPCRs; type: biochemical
[5] = tested on: other GPCRs, such as motilin or histamine H1 receptor; settings: Gqi only or cDNAs for other GPCRs; data not shown
[6] = tested on: human polymorphonuclear (PMN) leukocytes; settings: Naccache et al, Fonteriz et al, Nakao et al; cited from earlier work
[7] = target: T1, human GPR43; settings: library at 1-100 μM; confirmed by a dose response curve
Method: as §1

[8] = target: T1, human GPR43; assay: Production of inositol phosphates in CHO-K1 cells stably expressing human GPR43; type: cell-based; design: expressed in transfected cells; settings: PTX-pretreatment prior to stimulation; FIG. 10
[9] = tested on: human polymorphonuclear (PMN) leukocytes; assay: Mobilization of intracellular calcium in human neutrophils (Fura-2); type: cell-based; settings: for EC50: FIG. 15 and 16, read-out: EC50 for increase of intracellular calcium
Method: The following experiments were conducted to test whether the human polymorphonuclear (PMN) leukocytes could be activated with acetate and propionate, since the receptor is strongly expressed in peripheral blood cells containing mainly PMNs. Activation was determined by the quantification of the intracellular calcium mobilized from internal pool after activation by acetate and propionate of the cell membrane receptor. PMN were purified from the venous blood of healthy volunteers. Cells were isolated according to established methods. For intracellular calcium measurements, the cells were loaded for 30 min at room temperature with Fura-2AM (Molecular Probes). […] Briefly, neutrophils suspensions (1×10^7 cells/ml) were incubated with 2 μM Fura-2/AM for 30 minutes at 37° C. The cells were then washed free of the extracellular probe, resuspended at 5×10^6 cells/ml and allowed to reequilibrate for 10 minutes at 37° C. Cells were then transferred to the thermostatted cuvette compartment (37° C.) of the fluorometer and the fluorescence monitored (excitation and emission […], 340 and 510 nm respectively).

[10] = tested on: peripheral blood neutrophils; assay: Chemotactic response of neutrophilic granulocytes (48-well chamber); type: cell-based, human; settings: for shape of chemotactic dose-response: FIG. 17
Method: Peripheral blood mononuclear cells were purified from buffy coats of healthy volunteers as previously described (Struyf S, De Meester I, Scharpe S, Lenaerts J P, Menten P, Wang J M, Proost P, Van Damme J., Eur J Immunol Apr. 28, 1998; 28 (4):1262-71). For intracellular calcium measurements, the cells were loaded for 30 min at room temperature with Fura-2AM (Molecular Probes). Calcium transients were monitored by a LS50B spectrofluorimeter (Perkin Elmer) as described (Grynkiewicz G, Poenie M, Tsien R Y., J Biol Chem Mar. 25, 1985;260(6):3440-50) at a final cell concentration of 10^6 cells/ml in buffer containing 125 μM probenecid. Chemotaxis was assessed in 48-well chambers using polycarbonate filter membranes with 3 μm (mesh size) (Neuroprobes, Inc.). The results are represented as chemotactic index (FIG. 17).
Freshly isolated peripheral blood neutrophils from healthy donors were tested for their chemotactic response to sodium acetate and propionate.

[11] = CHO-K1 cells stably expressing human GPR43, FIG. 4

Compound	activity on GTPγ[35S] binding [1]	order of agonist potency [1]	activity on human GPR43 [2]	further results
NCCCC(=O)O [GABA]	Inactive	–	–	–
CCO [ethanol]	Inactive	–	–	–
CCCCC(=O)O [n-valerate]	–	acetate=propionate>n-butyrate=isobutyrate=n-valerate=caproate>>formate>>pyruvate=acetoacetate	–	–
NCC(=O)O [glycine]	–	–	decreased activity without abolishing it	–
N[C@@H](CO)C(=O)O [serine]	–	–	abolished the activity	–
O=C(O)CC(=O)O [malonate]	Inactive	–	abolished the signal	–
O=C(O)CC(O)(CC(=O)O)C(=O)O [citrate]	Inactive	–	abolished the signal	–
CC=O [acetaldehyde]	Inactive	–	–	–
CC(C)C(=O)O [isobutyrate]	–	acetate=propionate>n-butyrate=isobutyrate=n-valerate=caproate>>formate>>pyruvate=acetoacetate	–	–
CC(=O)O [acetate]	–	acetate=propionate>n-butyrate=isobutyrate=n-valerate=caproate>>formate>>pyruvate=acetoacetate	–	decrease of forskolin-stimulated adenylate cyclase activity [3]: 75%; rank order of potency to inhibit forskolin-stimulated adenylate cyclase [3]: C2 (acetate)≧C3 (propionate)>C4 (butyrate)>>C1 (formate); observed effect on adenylate cyclase after overnight preincubation with Pertussis Toxin (PTX) ([3]; FIG. 5): totally abolished; stimulation of GTPγ[35S] binding in membranes with non related receptors [4]: not able to stimulate any binding; activation of control cells (inositol phosphates) [5]: not activated; EC50 for cytoplasmic calcium mobilization in PMN [6]: millimolar; result of ligand screening [7]: specific activity; activation of GTPγ[35S] binding, sodium versus ammonium salt ([1]; assay buffer containing 120 mM sodium or potassium, FIG. 7): equipotent; potency on accumulation of GTPγ[35S] binding ([1]; compared with the cell-based cAMP assay, FIG. 6): comparable to that observed in the cell-based functional assay monitoring cAMP levels; PTX sensitivity of the accumulation of total inositol phosphates [8]: non PTX sensitive; effect of increasing concentration on intracellular calcium [9]: concentration-dependent increase of intracellular calcium; EC50 [9]: 537 µM; shape of chemotactic dose-response [10]: classical bell-shaped dose-response curve
CC(O)CC(=O)O (racemic) [DL-β-hydroxybutyrate]	Inactive	–	is not active	–
CCC(=O)O [propionate]	–	acetate=propionate>n-butyrate=isobutyrate=n-valerate=caproate>>formate>>pyruvate=acetoacetate	–	decrease of forskolin-stimulated adenylate cyclase activity [3, 11]: 75%; rank order of potency to inhibit forskolin-stimulated adenylate cyclase ([3]; SCFA from 1 carbon to 4 carbon, FIG. 4): C2 (acetate)≧C3 (propionate)>C4 (butyrate)>>C1 (formate); stimulation of GTPγ[35S] binding in membranes with non related receptors ([4]; adenosine A1, adrenergic 2C, CRF 1, CCR3, LTB4, M4, neuropeptide FF 2S, opioid 3, 5-HT1A, sst5 receptors): not able to stimulate any binding; EC50 for cytoplasmic calcium mobilization in PMN [6]: millimolar; PTX sensitivity of the accumulation of total inositol phosphates [8]: non PTX sensitive; effect of increasing concentration on intracellular calcium [9]: concentration-dependent increase of intracellular calcium; EC50 ([9]; Leukocyte): 540 µM; shape of chemotactic dose-response [10]: classical bell-shaped dose-response curve
O=C(O)C(=O)O [oxalate]	Inactive	–	abolished the signal	–
CCCC(=O)O [butyrate]	–	–	–	decrease of forskolin-stimulated adenylate cyclase activity [3, 11]: 75%
CC(C)=O [acetone]	Inactive	–	–	–
CC(=O)CC(=O)O [acetoacetate]	–	acetate=propionate>n-butyrate=isobutyrate=n-valerate=caproate>>formate>>pyruvate=acetoacetate	decreased but consistent activity	–
N[C@@H](CCC(=O)O)C(=O)O [L-glutamate]	Inactive	–	abolished the signal	–
CCCCCC(=O)[O-].CCCCCC(=O)[O-].[Ca+2] [caproate]	–	acetate=propionate>n-butyrate=isobutyrate=n-valerate=caproate>>formate>>pyruvate=acetoacetate	–	–
O=C(O)CCC(=O)O [succinate]	Inactive	–	abolished the signal	–
f-met-leu-phe [fMLP]	–	–	–	maximal chemotactic index relative to SCFA ([10]; on average, data not shown): at least 3 fold
O=CO [formate]	–	acetate=propionate>n-butyrate=isobutyrate=n-valerate=caproate>>formate>>pyruvate=acetoacetate	–	decrease of forskolin-stimulated adenylate cyclase activity [3]: 75%; rank order of potency to inhibit forskolin-stimulated adenylate cyclase [3]: C2 (acetate)≧C3 (propionate)>C4 (butyrate)>>C1 (formate); activation of the human receptor (maximal response compared to acetate and propionate) ([1]; data not shown): partly activate

Source: patent US7303889B2, “Ligand for G-protein coupled receptor GPR43 and uses thereof” (Euroscreen S.A., priority 2002, dated 2007)
